The text below walks through data of patent US20230190697A1, “METHODS FOR TREATING VIRAL INFECTIONS WITH NAFAMOSTAT” (priority 2020, published 2023).

A short description of series [1]: Pharmacokinetics of nafamostat in male rats (whole blood, LC/MS/MS). The class given is in vivo. Here is the method: Example 1: Pharmacokinetic Studies. The pharmacokinetics of nafamostat were evaluated in male rats following an intravenous dose of 1 mg/kg or an oral dose of 9 mg/kg or 10 mg/kg. Nafamostat whole blood concentrations were determined by LC/MS/MS. Following intravenous dosing, nafamostat appeared in the blood of rats, with average (± SD) maximum whole blood concentrations (189 ± 54 ng/mL) being reached at the first measured time point (0.0830 hours) in all animals. […] The AUC0-t was 81.8 ± 29 ng̬·h/mL. The pharmacokinetic parameters were generated using a standard, non-compartmental model. Note that the half-life reported in this section is the terminal half-life and the alpha phase half-life is much shorter (estimated to be about 3 minutes).
After oral dosing, nafamostat appeared in the blood for the majority of the rats, with the whole blood concentrations being low and transient. The average (± SD) maximum plasma concentrations were 6.40 ± 6.2 ng/mL and 6.09 ± 3.6 ng/mL for the 9 mg/kg and 10 mg/kg doses, respectively, being reached between 0.250 hours and 0.500 hours. Due to the transient whole blood concentration-time profiles, the terminal t½ could not be calculated in the majority of the subjects but is approximated to be about 3 hours. The AUC0-t was 8.80 ng·h/mL (n=1) and 12.6 ± 11 ng·h/mL (n=3) for the two doses, respectively.

Series [2] addresses hERG K+ channel (Homo sapiens, UniProt Q12809). Put plainly: cell-based. As for the experimental part:
Effects of nafamostat in an hERG assay: In an in vitro non-GLP screening study, effects of nafamostat on the hERG K^+ channel currents were evaluated in voltage-clamped human embryonic kidney cells at room temperature. […] A full ICH-Compliant hERG study and in vivo cardiovascular safety pharmacology study is be performed as part of the IND-enabling program.

For series [3], the system named is S. typhimurium strains TA98, TA100, TA1535, and TA97a and Escherichia coli strain WP2uvrA76. Nature of the series: Bacterial Reverse Mutation (Ames) Screening Assay. The class given is cell-based. As to conditions: with or without S9, up to 25 mg/mL. Here is the method:
Bacterial Reverse Mutation (Ames) Screening Assay: This in vitro non-GLP study evaluated the cytotoxic and mutagenic activity of nafamostat in S. typhimurium strains TA98, TA100, TA1535, and TA97a and in the Escherichia coli (E. coli) strain WP2uvrA76. Two independent assays were conducted using the plate incorporation method with and without S9 metabolic activation. The highest concentration tested was 25 mg/mL. The vehicle control, sterile saline, was tested under the same conditions.

A short description of series [4]: Pharmacokinetics of oral nafamostat mesylate solution in healthy male and female subjects. Type of series: in vivo, human. Here is the method:
Part 1: Single Ascending Dose Study. Male and female subjects aged 18 - 70 were administered a single dose of 50 mg nafamostat mesylate on day 1, 100 mg nafamostat mesylate on day 3 or 4, and 200 mg nafamostat mesylate on day 5, 6, or 7. Nafamostat mesylate was administered in the form of an oral solution. […]
Part 2: Multiple Ascending Dose Study. Subjects were divided into 2 cohorts. Cohort 1 received an oral solution of 100 mg/mL nafamostat mesylate twice a day for 5 days with pharmacokinetic evaluations on each day. […] Safety evaluations continued for 48 hours after the last dose. After review and evidence of safety, Cohort 2 received an oral solution of 200 mg/mL nafamostat mesylate twice a day for 5 days with pharmacokinetic evaluations on each day. […] Safety evaluations continued for 48 hours after the last dose.
Part 3: Single Fixed Dose Administered Twice Daily for 5 Days. Six subjects, different than the subjects from Parts 1 and 2, received an oral solution of 200 mg/mL nafamostat mesylate twice a day for 5 days. Blood samples were obtained at pre-dose (0 hr.) and at 0.5, 1, 2, 3, 4, 6, and 8 hours after the first dose on Day 1 and again after the first dose on Day 5. […]
Oral solutions received by each subject were prepared by dissolving nafamostat mesylate in about 100 mL of EMETROL®/water and provided at a volume to deliver the indicated dosage. There was no placebo formulation.
Nafamostat pharmacokinetics was evaluated at the 200 mg dose levels.

The subject of series [5] is healthy male and female subjects. Nature of the series: Safety and tolerability (adverse events) of oral nafamostat mesylate in healthy subjects. Type of series: in vivo, human. As for the experimental part:
Part 1: Single Ascending Dose Study. Male and female subjects aged 18 - 70 were administered a single dose of 50 mg nafamostat mesylate on day 1, 100 mg nafamostat mesylate on day 3 or 4, and 200 mg nafamostat mesylate on day 5, 6, or 7. Nafamostat mesylate was administered in the form of an oral solution. Blood samples were obtained at pre-dose (0 hr.) and at 0.5, 1, 2, 3, 4, 6, 8, 12, and 24 hours after receiving the nafamostat mesylate oral solution.
Part 2: Multiple Ascending Dose Study. Subjects were divided into 2 cohorts. Cohort 1 received an oral solution of 100 mg/mL nafamostat mesylate twice a day for 5 days with pharmacokinetic evaluations on each day. Blood samples were obtained at pre-dose (0 hr.) and at 0.5, 1, 2, 3, 4, 6, 8, 12, and 24 hours after receiving the nafamostat mesylate oral solution as well as after the first dose on Day 5. Safety evaluations continued for 48 hours after the last dose. After review and evidence of safety, Cohort 2 received an oral solution of 200 mg/mL nafamostat mesylate twice a day for 5 days with pharmacokinetic evaluations on each day. Blood samples were obtained at pre-dose (0 hr.) and at 0.5, 1, 2, 3, 4, 6, 8, 12, and 24 hours after receiving the first dose of nafamostat mesylate oral solution as well as after the first dose on Day 5. Safety evaluations continued for 48 hours after the last dose.
Part 3: Single Fixed Dose Administered Twice Daily for 5 Days. Six subjects, different than the subjects from Parts 1 and 2, received an oral solution of 200 mg/mL nafamostat mesylate twice a day for 5 days. Blood samples were obtained at pre-dose (0 hr.) and at 0.5, 1, 2, 3, 4, 6, and 8 hours after the first dose on Day 1 and again after the first dose on Day 5.
Part 4: Single Ascending Dose Study. Three subjects were administered a single dose of an oral solution of 400 mg/mL nafamostat mesylate. After review and evidence of safety, a second set of three subjects received a single dose of an oral solution of 600 mg/mL nafamostat mesylate. Blood samples were obtained for pharmacokinetic analysis at pre-dose (0 hr.) and at 0.25, 0.5, 0.75, 1, 1.5, 2, 2.5, 3, 4, 6, and 8 hours after receiving the nafamostat mesylate dose.
Evaluations of subjects included incidence and severity of adverse events (AEs), vital signs (pulse rate, blood pressure, respiratory rate), 12-lead electrocardiogram, electrocardiogram telemetry or MCOT cardiac patch, continuous pulse oximetry, clinical laboratory tests (CBC-diff, complete metabolic panel including LFTs, PT, PTT), physical examination.

[6] abbreviates: human, oral, 200 mg dose levels.

Molecules are shown by their SMILES. Values joined by “and” are separate entries in the source; they are usually repeats but may differ in a detail not shown here. Equal entries are not always repeated. “Also recorded” adds a separate entry of the source. Where two headings read alike, the source gives them in different places. A value given as a limit tells only on which side of the number the result lay.

Chain of hERG K+ channel (Q12809 whole entry): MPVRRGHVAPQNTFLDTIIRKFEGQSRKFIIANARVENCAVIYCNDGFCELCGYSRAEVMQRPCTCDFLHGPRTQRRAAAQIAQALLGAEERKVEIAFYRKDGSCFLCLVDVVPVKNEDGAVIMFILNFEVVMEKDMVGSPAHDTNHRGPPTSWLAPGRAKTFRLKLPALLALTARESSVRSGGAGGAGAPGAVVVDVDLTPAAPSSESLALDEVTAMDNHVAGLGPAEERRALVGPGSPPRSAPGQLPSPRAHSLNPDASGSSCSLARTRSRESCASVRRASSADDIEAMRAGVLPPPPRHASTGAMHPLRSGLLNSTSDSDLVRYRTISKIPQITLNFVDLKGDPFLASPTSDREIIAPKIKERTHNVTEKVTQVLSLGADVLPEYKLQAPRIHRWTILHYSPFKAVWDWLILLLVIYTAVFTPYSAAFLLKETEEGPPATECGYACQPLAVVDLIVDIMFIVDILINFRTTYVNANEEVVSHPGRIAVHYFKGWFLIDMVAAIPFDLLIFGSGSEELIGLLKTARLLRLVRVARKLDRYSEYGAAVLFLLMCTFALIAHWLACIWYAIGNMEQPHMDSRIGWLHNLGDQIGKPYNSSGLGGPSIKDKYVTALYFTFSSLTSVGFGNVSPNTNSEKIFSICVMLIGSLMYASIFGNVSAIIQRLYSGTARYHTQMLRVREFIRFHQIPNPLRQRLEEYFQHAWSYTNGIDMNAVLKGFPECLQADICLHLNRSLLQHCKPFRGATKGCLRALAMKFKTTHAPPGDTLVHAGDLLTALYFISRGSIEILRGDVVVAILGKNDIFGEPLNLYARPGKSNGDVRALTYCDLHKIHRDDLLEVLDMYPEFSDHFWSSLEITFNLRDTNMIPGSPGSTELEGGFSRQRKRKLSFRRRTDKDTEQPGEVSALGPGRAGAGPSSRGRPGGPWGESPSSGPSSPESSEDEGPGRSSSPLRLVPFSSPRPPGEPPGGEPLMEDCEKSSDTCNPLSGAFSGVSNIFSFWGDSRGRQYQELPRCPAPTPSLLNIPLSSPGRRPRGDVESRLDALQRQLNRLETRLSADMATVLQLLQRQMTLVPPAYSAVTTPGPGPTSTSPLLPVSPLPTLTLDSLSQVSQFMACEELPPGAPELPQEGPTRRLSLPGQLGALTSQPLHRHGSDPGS

As for `N=C(N)c1ccc2cc(OC(=O)c3ccc(N=C(N)N)cc3)ccc2c1` [nafamostat], in series [1] (male rats, intravenous 1 mg/kg), the “average (± SD) maximum whole blood concentration” value is 189 ± 54 ng/mL. Moreover, in series [1] (male rats, intravenous 1 mg/kg), the clearance result was “high and greater than hepatic blood flow in rats”. In series [1] (male rats, intravenous 1 mg/kg), the “time of maximum whole blood concentration (first measured time point)” value stood at 0.0830 h. The “average (± SD) maximum plasma concentration” value amounted to 6.40 ± 6.2 ng/mL in series [1] (male rats, oral 9 mg/kg) and 6.09 ± 3.6 ng/mL in series [1] (male rats, oral 10 mg/kg). Besides, the half-life in series [1] (male, rat, whole blood, iv, 1 mg/kg, male rats, intravenous 1 mg/kg, estimated, read-out: alpha phase half-life) is about 0.05 h; in series [1] (male, rat, whole blood, iv, 1 mg/kg, male rats, intravenous 1 mg/kg, non-compartmental, read-out: terminal t½ (converted)), 1.84 ± 1.3 h; in series [1] (male, rat, whole blood, po, male rats, oral dosing, approximated, read-out: terminal t½ (converted)), about 3 h. For the same compound, the bioavailability in series [1] (male, rat, whole blood, rats, oral vs intravenous, read-out: overall absolute oral bioavailability) came to 1.16 ± 1.1%. For the same compound, the AUC(0-t) in series [1] (rat, whole blood, male rats, intravenous 1 mg/kg) was determined as 81.8 ± 29 ng·h/mL; in series [1] (rat, whole blood, male rats, oral 9 mg/kg (n=1)) it was 8.8 ng·h/mL; in series [1] (rat, whole blood, male rats, oral 10 mg/kg (n=3)), 12.6 ± 11 ng·h/mL. In addition, the IC50 in series [2] was over 50 µM. Besides, the “mutagenic activity (mean number of revertants per plate)” value in series [3] (any test strain) is given as “no positive increases in the mean number of revertants”. Also, the cytotoxic activity entry in series [3] (plate incorporation) was “not cytotoxic”. Further, in series [4] (setting [6]), the “PK measurements (nafamostat concentration), all except three samples, below LLQ” value is reported as under 0.1 ng/mL. Moreover, the “nafamostat found in the two outlier samples taken after at least one daily dose” value in series [4] (setting [6]) is 0.125 ng/mL and 0.101 ng/mL. Also, the “nafamostat detected in blood samples” value in series [4] (oral administration) is given as “No nafamostat was detected in blood samples”. Also, in series [4] (subjects administered oral nafamostat), the “therapeutically-relevant blood plasma levels” value is given as “Therapeutically-relevant blood plasma levels were not observed”. In addition, the “adverse events attributable to nafamostat” value in series [5] (human subjects, oral solution) was “no adverse events that could be attributed to nafamostat reported”. Also, the adverse events entry in series [5] (oral, up to 600 mg nafamostat mesylate) is recorded as “no adverse events are observed”. In addition, the “Drug-Related?” value in series [5] (per subject (12-17), adverse event) was “No”. For the same compound, the “Adverse Event” value in series [5] (per subject (12-17), oral nafamostat mesylate solution) is given as “Intermittent headache; also recorded: Thrush; also recorded: Tonsillitis right; also recorded: Right thigh redness, swelling; also recorded: Nausea; also recorded: Orthostatic tachycardia* *; also recorded: Chest pain (mild, intermittent)”. For the same compound, in series [5] (per subject (12-17), severity of adverse event), the Severity result is “Mild (4×) and Moderate (3×)”.
